Data published in ChEMBL document CHEMBL5126506, “Coumarin-benzimidazole hybrids: A review of developments in medicinal chemistry” (Eur J Med Chem, 2022).
≈ marks a conversion by molar mass, not a printed value.

Legend:
[1] = Antioxidant activity assessed as DPPH radical scavenging activity incubated for 30 mins in dark condition by spectrophotometrical analysis; format: functional
Staphylococcus aureus [2] = test: Antibacterial activity against beta lactamase positive Staphylococcus aureus ATCC 25923 assessed as zone of inhibition at 0.5 mg/ml incubated for 18 hrs by Kirby-Bauer disk diffusion method; format: functional; conditions: read-out: DIZ
SK-OV-3 = test: Anticancer activity against human SK-OV-3 cells assessed as cell growth inhibition measured after 3 days by CCK-8 assay; format: functional; conditions: SK-OV-3, 72 h, time 3 day
PANC-1 = test: Anticancer activity against human PANC-1 cells assessed as cell growth inhibition measured after 3 days by CCK-8 assay; format: functional; conditions: PANC-1, 72 h, time 3 day
K562 = test: Anticancer activity against human K562 cells assessed as cell growth inhibition measured after 3 days by CCK-8 assay; format: functional; conditions: K562, 72 h, time 3 day
[3] = Anticancer activity against human KATO III stomach cancer cell line assessed as cell growth inhibition measured after 3 days by CCK-8 assay; format: functional; conditions: 72 h, time 3 day
SF-268 = test: Anticancer activity against human SF-268 cells assessed as cell growth inhibition measured after 48 hrs by sulforhodamine B staining based analysis; format: functional
NCI-H460 [4] = test: Anticancer activity against human NCI-H460 cells assessed as cell growth inhibition measured after 48 hrs by sulforhodamine B staining based analysis; format: functional
[5] = Cytotoxicity against human WI-38 cells assessed as cell growth inhibition measured after 48 hrs by sulforhodamine B staining based analysis; format: toxicity
MCF7 = test: Anticancer activity against human MCF7 cells assessed as cell growth inhibition measured after 48 hrs by sulforhodamine B staining based analysis; format: functional
Pseudomonas aeruginosa [6] = test: Antibacterial activity against Pseudomonas aeruginosa assessed as cell growth inhibition measured after 24 hrs by serial broth-dilution method; format: functional
Pseudomonas aeruginosa [7] = test: Antibacterial activity against Pseudomonas aeruginosa assessed as zone of inhibition measured after 24 hrs by agar well diffusion method; format: functional
Aspergillus flavus [8] = test: […] activity against Aspergillus flavus assessed as cell growth inhibition measured after 24 hrs by serial broth-dilution method; format: functional
Aspergillus flavus [9] = test: […] activity against Aspergillus flavus assessed as zone of inhibition measured after 24 hrs by agar well diffusion method; format: functional
Rattus norvegicus [10] = test: Antiinflammatory activity in formalin induced Wistar rat paw oedema model assessed as inhibition of paw oedema administered up to 6 hrs by plethysmograph analysis; format: functional, organism-based; set-up: scale not given: the % may be the effect or the level left
Salmonella typhi = test: Antibacterial activity against Salmonella typhi ATCC 11778 assessed as bacterial growth inhibition at 50 ug/ml incubated for 24 hrs relative to control; format: functional, Salmonella enterica subsp. enterica serovar Typhi; set-up: scale not given: the % may be the effect or the level left; conditions: dose 50 µg/ml
Shigella dysenteriae = test: Antibacterial activity against Shigella dysenteriae ATCC 49345 assessed as bacterial growth inhibition at 50 ug/ml incubated for 24 hrs relative to control; format: functional; set-up: scale not given: the % may be the effect or the level left; conditions: dose 50 µg/ml
Hepatitis C virus = test: Antiviral activity against HCV GT-1b infected in human Huh-5-2 cells carrying HCV subgenomic replicons assessed as inhibition of viral replication by quantitative RT-PCR assay; format: functional, organism-based, Hepacivirus hominis; conditions: subtype 1b
[11] = Anticancer activity against human U-87 MG cells assessed as cell growth inhibition measured after 72 hrs by MTT assay; format: functional, cell-based, U-87MG ATCC
SMMC-7721 = test: Anticancer activity against human SMMC-7721 cells assessed as cell growth inhibition measured after 72 hrs by MTT assay; format: functional, cell-based; conditions: SMMC-7721, 72 h
A549 = test: Anticancer activity against human A549 cells assessed as cell growth inhibition measured after 72 hrs by MTT assay; format: functional, cell-based; conditions: A549, 72 h
NCI-H460 [12] = test: Anticancer activity against human NCI-H460 cells assessed as cell growth inhibition measured after 72 hrs by MTT assay; format: functional, cell-based; conditions: NCI-H460, 72 h
Rattus norvegicus [13] = test: Antiinflammatory activity in carrageenan induced rat paw oedema model assessed as inhibition of paw oedema, ip pretreated with compound for 30 mins followed by carrageenan injection measured after 3 hrs relative to control; format: functional; set-up: scale not given: the % may be the effect or the level left; conditions: time 3.5 hrs
Rattus norvegicus [14] = test: Antiinflammatory activity in formalin induced fasted albino rat paw oedema model assessed as inhibition of paw oedema at 100 mg/kg, po measured after 4 hrs by plethysmograph analysis relative to control; format: functional; set-up: scale not given: the % may be the effect or the level left
Bacillus subtilis = test: Antibacterial activity against Bacillus subtilis assessed as zone of inhibition at 1000 ug/ml measured after 24 hrs by cup plate method; format: functional; conditions: read-out: DIZ
Aspergillus terreus = test: Antifungal activity against Aspergillus terreus assessed as zone of inhibition at 1000 ug/ml measured after 24 hrs by cup plate method; format: functional; conditions: read-out: DIZ
Escherichia coli = test: Antibacterial activity against Escherichia coli assessed as zone of inhibition at 1000 ug/ml measured after 24 hrs by cup plate method; format: functional; conditions: read-out: DIZ
Pseudomonas aeruginosa [15] = test: Antibacterial activity against Pseudomonas aeruginosa assessed as zone of inhibition at 1000 ug/ml measured after 24 hrs by cup plate method; format: functional; conditions: read-out: DIZ
Staphylococcus aureus [16] = test: Antibacterial activity against Staphylococcus aureus assessed as zone of inhibition at 1000 ug/ml measured after 24 hrs by cup plate method; format: functional; conditions: read-out: DIZ
Aspergillus niger = test: Antifungal activity against Aspergillus niger assessed as zone of inhibition at 1000 ug/ml measured after 24 hrs by cup plate method; format: functional; conditions: read-out: DIZ
Aspergillus flavus [17] = test: Antifungal activity against Aspergillus flavus assessed as zone of inhibition at 1000 ug/ml measured after 24 hrs by cup plate method; format: functional; conditions: read-out: DIZ
Sprivivirus cyprinus = test: Antiviral activity against Carp sprivivirus infected Fathead minnow EPC cells assessed as assessed as suppression of virus-induced cytopathic effect incubated for 48 hrs by CCK-8 assay; format: functional, organism-based
Carbonic anhydrase 2 = Carbonic anhydrase 2 (Homo sapiens, UniProt P00918); test: Inhibition of human carbonic anhydrase-2 by stopped flow CO2 hydrase assay
Carbonic anhydrase 1 = Carbonic anhydrase 1 (Homo sapiens, UniProt P00915); test: Inhibition of human carbonic anhydrase-1 by stopped flow CO2 hydrase assay
Sequence of Carbonic anhydrase 1 (P00915 whole entry): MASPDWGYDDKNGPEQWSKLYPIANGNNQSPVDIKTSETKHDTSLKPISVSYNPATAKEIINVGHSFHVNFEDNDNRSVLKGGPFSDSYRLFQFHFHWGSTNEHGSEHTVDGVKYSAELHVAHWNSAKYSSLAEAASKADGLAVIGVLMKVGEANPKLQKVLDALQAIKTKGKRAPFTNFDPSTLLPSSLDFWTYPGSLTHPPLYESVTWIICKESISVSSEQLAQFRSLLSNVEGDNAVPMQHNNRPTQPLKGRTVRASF

SNU1 = test: Anticancer activity against human SNU1 cells assessed as cell growth inhibition measured after 3 days by CCK-8 assay; format: functional; conditions: SNU1, 72 h, time 3 day
AGS = test: Anticancer activity against human AGS cells assessed as cell growth inhibition measured after 3 days by CCK-8 assay; format: functional; conditions: 72 h, time 3 day

O=C1O[C@H]([C@@H](O)CO)C(O)=C1O [ASCORBIC ACID]
EC50 [1]: 0.03 µM

O=c1cc(Cc2nc3ccccc3[nH]2)c2cccc([N+](=O)[O-])c2o1
EC50 [1]: 0.17 µM

CO[C@@H]1[C@@H](OC(N)=O)[C@@H](O)[C@H](Oc2ccc3c(O)c(NC(=O)c4ccc(O)c(CC=C(C)C)c4)c(=O)oc3c2C)OC1(C)C [NOVOBIOCIN]
zone of inhibition at 500 µg/mL (Staphylococcus aureus [2]): 25 mm

CCN(CC)c1ccc2cc(-c3nc4ccccc4n3C)c(=O)oc2c1
GI50 (SK-OV-3): 0.07 µM
GI50 (PANC-1): 0.1 µM
GI50 (K562): 0.07 µM
GI50 [3]: 0.1 µM

O=c1oc2ccccc2c2c(O)cn3c4ccccc4nc3c12
GI50 (SF-268): 26.1 µM
GI50 (NCI-H460 [4]): 30.8 µM
GI50 at 48 h [5]: 25.2 µM
GI50 (MCF7): 24.1 µM

O=c1oc2ccccc2c(O)c1C(Sc1nc2ccccc2[nH]1)c1ccccc1 (stereo not given)
MIC (Pseudomonas aeruginosa [6]): 200 µg/mL (≈ 499 µM)
diameter of the inhibition zone (DIZ) (Pseudomonas aeruginosa [7]): 23 mm
MIC (Aspergillus flavus [8]): 200 µg/mL (≈ 499 µM)
diameter of the inhibition zone (DIZ) (Aspergillus flavus [9]): 18 mm

O=c1oc2ccc(Br)cc2cc1-c1nc2ccccc2[nH]1
Activity (Rattus norvegicus [10]): 45.45%

O=c1oc2ccccc2cc1CSc1nc2ccccc2[nH]1
Activity (Salmonella typhi): 100%
Activity (Shigella dysenteriae): 100%

COc1cccc2cc(CSc3nc4cc(Cl)c(Cl)cc4[nH]3)c(=O)oc12
EC50 (Hepatitis C virus): 3.6 µM

O=C(/C(Cl)=N/Nc1ccc(Cl)cc1Cl)n1c(-c2cc3ccccc3oc2=O)nc2ccccc21
IC50 [11]: 0.29 µM
IC50 (SMMC-7721): 0.22 µM
IC50 (A549): 0.25 µM
IC50 (NCI-H460 [12]): 0.36 µM

O=c1cc(Cc2nc3ccccc3[nH]2)c2ccccc2o1
Activity (Rattus norvegicus [13]): 45%

O=c1oc2ccc(Br)cc2cc1CSc1nc2cc(F)ccc2[nH]1
EC50 (Hepatitis C virus): 3.4 µM

Cc1c(/C=N/Nc2nc3ccccc3[nH]2)c(=O)oc2cc(O)ccc12
Activity (Rattus norvegicus [14]): 37%
zone of inhibition at 1000 µg/mL (Bacillus subtilis): 13 mm
zone of inhibition at 1000 µg/mL (Aspergillus terreus): 13 mm
zone of inhibition at 1000 µg/mL (Escherichia coli): 13 mm
zone of inhibition at 1000 µg/mL (Pseudomonas aeruginosa [15]): 13 mm
zone of inhibition at 1000 µg/mL (Staphylococcus aureus [16]): 13 mm
zone of inhibition at 1000 µg/mL (Aspergillus niger): 13 mm
zone of inhibition at 1000 µg/mL (Aspergillus flavus [17]): 13 mm

Cc1c(C2SCC(=O)N2Nc2nc3ccccc3[nH]2)c(=O)oc2cc(O)ccc12 (stereo not given)
Activity (Rattus norvegicus [14]): 20%
zone of inhibition at 1000 µg/mL (Bacillus subtilis): 13 mm
zone of inhibition at 1000 µg/mL (Aspergillus terreus): 13 mm
zone of inhibition at 1000 µg/mL (Escherichia coli): 13 mm
zone of inhibition at 1000 µg/mL (Pseudomonas aeruginosa [15]): 13 mm
zone of inhibition at 1000 µg/mL (Staphylococcus aureus [16]): 13 mm
zone of inhibition at 1000 µg/mL (Aspergillus niger): 13 mm
zone of inhibition at 1000 µg/mL (Aspergillus flavus [17]): 13 mm

Cc1cn2c3ccccc3nc2c2c(=O)oc3ccccc3c12
GI50 (SF-268): 18.4 µM
GI50 (NCI-H460 [4]): 29.3 µM
GI50 at 48 h [5]: 68.2 µM
GI50 (MCF7): 26.6 µM

O=c1ccc2cc(OCCCn3cnc4ccccc43)ccc2o1
IC50 (Sprivivirus cyprinus): 2.2 µg/mL (≈ 6.87 µM)

O=c1cc(Cn2c[n+](CCCCCn3c[n+](Cc4cc(=O)oc5cc(O)ccc45)c4ccccc43)c3ccccc32)c2ccc(O)cc2o1
IC50 (Carbonic anhydrase 2): 89 µM
IC50 (Carbonic anhydrase 1): 99 µM

CC(=O)OC[C@H]1O[C@@H](n2c(SCc3cc4ccccc4oc3=O)nc3cc(Cl)c(Cl)cc32)[C@H](OC(C)=O)[C@@H](OC(C)=O)[C@@H]1OC(C)=O
EC50 (Hepatitis C virus): 3.1 µM

CCN(CC)c1ccc2cc(-c3nc4cc(C)ccc4n3C)c(=O)oc2c1
GI50 (SNU1): 0.12 µM
GI50 (K562): 0.67 µM
GI50 (AGS): 0.78 µM
GI50 [3]: 0.59 µM

O=c1cc(Cn2c[n+](CCCCn3c[n+](Cc4cc(=O)oc5cc(O)ccc45)c4ccccc43)c3ccccc32)c2ccc(O)cc2o1
IC50 (Carbonic anhydrase 2): 94 µM
IC50 (Carbonic anhydrase 1): 81 µM

CC(=O)n1c(-c2cc3ccccc3oc2=O)nc2ccccc21
GI50 (SF-268): 31.5 µM
GI50 (NCI-H460 [4]): 36.5 µM
GI50 at 48 h [5]: > 100 µM
GI50 (MCF7): 22.7 µM

CN[C@@H]1[C@H](O[C@H]2[C@H](O[C@H]3[C@H](O)[C@@H](O)[C@H](N=C(N)N)[C@@H](O)[C@@H]3N=C(N)N)O[C@@H](C)[C@]2(O)C=O)O[C@@H](CO)[C@H](O)[C@H]1O [STREPTOMYCIN]
MIC (Pseudomonas aeruginosa [6]): 2200 µg/mL (≈ 3780 µM)
